Experimental data as given in paper PMC13089524, “Development of SYK NanoBRET cellular target engagement assays for gain–of–function variants” (Frontiers in chemical biology, 2024).

Experiments:
[1] = target: T1, SYK (Homo sapiens, UniProt P43405); assay: Eurofins DiscoverX SYK enzymatic radiometric assay; format: biochemical; conditions: for IC50: Km value for ATP, 9-pt dose-response
T1 construct: purchased Eurofins DiscoverX (contract assay service)
Text: Eurofins kinase enzymatic radiometric assays were executed at the Km value for ATP in dose–response (9-pt curve) format for SYK, included in Table 1 as enzymatic IC50 values.

[2] = target: T2, SYK(WT)-NL (Homo sapiens, UniProt P43405); assay: NanoBRET assay in digitonin permeabilized HEK293 cells, SYK(WT)-NL; format: cell-based; conditions: C-terminal NL fusion, tracer 0.5, 1, 2 μM
T2 construct: SYK tracers enable BRET with full-length SYK(WT) after digitonin permeabilization; host or cells: HEK293
Procedure: We performed NanoBRET tracer optimization to determine if the SYK tracers could effectively generate a BRET signal. […] To enable the NanoBRET assay using tracer 8 with cells permeabilized by digitonin, a tracer dose–response study was performed for each SYK(GoF) variant and SYK(WT) (Figure 3A), followed by tracer titration experiments (Figure 3B; Supplementary Figure S3). […] Initially, we determined the EC50 of tracer 8 for each SYK(GoF) variant and SYK(WT). […] Plates were incubated for 25 min at room temperature if digitonin was added or for 2 h at 37°C in 5% CO2 for the intact cell NanoBRET assay. […] For intact live cells in a 96-well plate, the 3X stock solution was prepared with 30 μL of NanoBRET NanoGlo substrate, 10 μL of extracellular NanoLuc inhibitor, and 4,960 μL of Opti-MEM without phenol red. For digitonin permeabilized live cells in a 96-well plate, the 3X stock solution was prepared with 30 μL of NanoBRET NanoGlo substrate and 4,970 μL of Opti-MEM without phenol red. Raw milliBRET units (mBU) were read on a GloMax Discover system (Promega) with a donor emission wavelength of 450 nm and an acceptor emission wavelength of 600 nm. mBU were calculated by dividing the acceptor emission values (600 nm) by the donor emission values (450 nm). For NanoBRET studies with SYK, background corrected mBU were calculated by subtracting the no tracer wells from the tracer-containing wells and multiplying by 1,000.
HEK293 cells were transfected with constructs of SYK(WT) or SYK(KD) tagged with NL on the C- or N-terminus and SYK GoF variants tagged with NL on the C-terminus. Tracer 8 (20X) was prepared from a 400 μM stock solution in DMSO with tracer dilution buffer (Promega, #N291B) and 20% DMSO, with a final assay plate concentration of 1% DMSO. 5 μL of 8 (20X) was added to each well, with exception of the no tracer control wells, with final plate concentrations of 0.5, 1, and 2 μM. 10 μL of digitonin (Fisher, 10X, 500 μg/mL) was added to specific wells to permeabilize the cells. The 10X digitonin stock was prepared by diluting a 40X DMSO solution of digitonin with room temperature Opti-MEM without phenol red, for a final assay plate concentration of 1% DMSO. SYK inhibitor stock solutions of MRL-SYKi (10X) were prepared from 10 mM DMSO stock solutions with room temperature Opti-MEM without phenol red, for final assay plate concentrations of 10 μM. Plates were incubated for 25 min at room temperature if digitonin was added or for 2 h at 37°C in 5% CO2 for the intact cell NanoBRET assay. Two technical replicates were plotted in a bar chart with the standard deviation represented as error bars on Graphpad Prism.

[3] = target: T3, SYK(KD)-NL or NL-SYK(KD) (Homo sapiens, UniProt P43405); assay: NanoBRET tracer optimization with SYK kinase domain only constructs; format: cell-based; conditions: with or without digitonin, N- or C-terminal NL
T3 construct: N- and C-terminally-tagged NL SYK kinase domain constructs lacking the tandem SH2 domains were prepared; expressed in transfected cells; host or cells: HEK293
Procedure: HEK293 cells were transfected with constructs of SYK (WT, KD, and GoF variants) tagged with NL on the N- or C-terminus as previously described ([Wells et al., 2021]). Constructs for NanoBRET measurements of SYK(WT) (NL-SYK(WT) and SYK(WT)-NL) and SYK GoF variants (SYK(S550Y)-NL, SYK(S550F)-NL, SYK(P342T)-NL, SYK(M450I)-NL, and SYK(A353T)-NL) were kindly provided by Promega. NL orientations used in the respective assays are indicated. Cells were plated in 96-well tissue culture-treated plates (Corning, #3917) at a cell density of 2 × 10^5 cells/mL, with a total volume of 100 μL per well in DMEM +10% FBS. After 16 h, the media was aspirated from the plate and replaced with room temperature Opti-MEM without phenol red (Gibco, #11058021), 100 μL in no tracer wells; 95 μL in tracer only wells; 90 μL in no tracer wells and with digitonin treated plates, 90 μL in no tracer wells; 85 μL in tracer only wells; 80 μL in no tracer wells. Plates were incubated for 25 min at room temperature if digitonin was added or for 2 h at 37°C in 5% CO2 for the intact cell NanoBRET assay. NanoBRET plates were read after the addition of 50 μL of a stock solution (3X) containing NanoBRET NanoGlo substrate (Promega, #N2161), extracellular NanoLuc inhibitor (Promega, #N2161) when reading assay plates performed in intact live cells, and Opti-MEM without phenol red (Gibco, #11058021). For intact live cells in a 96-well plate, the 3X stock solution was prepared with 30 μL of NanoBRET NanoGlo substrate, 10 μL of extracellular NanoLuc inhibitor, and 4,960 μL of Opti-MEM without phenol red. For digitonin permeabilized live cells in a 96-well plate, the 3X stock solution was prepared with 30 μL of NanoBRET NanoGlo substrate and 4,970 μL of Opti-MEM without phenol red. Raw milliBRET units (mBU) were read on a GloMax Discover system (Promega) with a donor emission wavelength of 450 nm and an acceptor emission wavelength of 600 nm. mBU were calculated by dividing the acceptor emission values (600 nm) by the donor emission values (450 nm). For NanoBRET studies with SYK, background corrected mBU were calculated by subtracting the no tracer wells from the tracer-containing wells and multiplying by 1,000. Where the results are reported as a BRET fold change, this is the BRET ratio for the vehicle-treated sample divided by BRET for the inhibitor-treated sample.
HEK293 cells were transfected with constructs of SYK(WT) or SYK(KD) tagged with NL on the C- or N-terminus and SYK GoF variants tagged with NL on the C-terminus. Tracer 8 (20X) was prepared from a 400 μM stock solution in DMSO with tracer dilution buffer (Promega, #N291B) and 20% DMSO, with a final assay plate concentration of 1% DMSO. […]

[4] = system: FGR, MLK1, YES, FLT3, PAK5, LYN, SRC, and LCK; conditions: ref Coffey et al., 2012, Spurgeon et al., 2013, cited from earlier work

In the case of O=C(CCc1ccc2n1[B-](F)(F)[N+]1=C(c3ccc[nH]3)C=CC1=C2)NCCOCCOCCOCCC(=O)N1CCN(c2ccc(Nc3nc(-c4ccc5cn[nH]c5c4)cn4ccnc34)cc2)CC1 [Tracer 2], the IC50 [1] is reported as 2400 nM, the “BRET signal (background subtracted)” value [2] is reported as 4 mBU and the BRET signal [3] is reported as “did not generate a BRET signal”.
With Cn1ncc2ccc(-c3cn4ccnc4c(Nc4ccc(N5CCNCC5)cc4)n3)cc21 [Tracer 3] the IC50 [1] was 97 nM.
With Cn1ncc2ccc(-c3cn4ccnc4c(Nc4ccc(N5CCN(C(=O)CCc6ccc7n6[B-](F)(F)[N+]6=C(c8ccc[nH]8)C=CC6=C7)CC5)cc4)n3)cc21 [Tracer 4] the IC50 [1] was > 10000 nM, the “BRET signal (background subtracted)” value [2] was “did not generate a BRET signal” and the BRET signal [3] was “did not generate a BRET signal”.
With CC1(C)Oc2ccc(Nc3nc(Nc4cccc(OCC(=O)NCCOCCOCCOCCNC(=O)CCc5ccc6n5[B-](F)(F)[N+]5=C(c7ccc[nH]7)C=CC5=C6)c4)ncc3F)nc2NC1=O [Tracer 5] the IC50 [1] was 1100 nM, the “BRET signal (background subtracted)” value [2] was > 10 mBU and the BRET signal [3] was “did not generate a BRET signal”.
With CC1(C)Oc2ccc(Nc3nc(Nc4cccc(OCC(=O)NCCNC(=O)CCc5ccc6n5[B-](F)(F)[N+]5=C(c7ccc[nH]7)C=CC5=C6)c4)ncc3F)nc2NC1=O [Tracer 6] the IC50 [1] was 1400 nM, the “BRET signal (background subtracted)” value [2] was > 10 mBU and the BRET signal [3] was “did not generate a BRET signal”.
For Cc1cc(Nc2nccc(C)n2)cc(-c2cnc([C@@]3(O)CC[C@H](C(=O)NCCOCCOCCOCCNC(=O)CCc4ccc5n4[B-](F)(F)[N+]4=C(c6ccc[nH]6)C=CC4=C5)C(C)(C)C3)s2)c1 [Tracer 7], the IC50 [1] was 470 nM, the “decrease in potency compared to the parent inhibitor MRL-SYKi” value ([1]; ratio of enzymatic IC50) was 15.6 fold and the “BRET signal (background subtracted)” value [2] was > 10 mBU.
In the case of NC(=O)c1cnc(N[C@@H]2CCCC[C@@H]2N)nc1Nc1cccc(-n2nccn2)c1 [Tracer P505-15], the “inhibition of eight kinases” value ([4]; at 300 nM) is listed as “greater than 80%”, the IC50 ([4]; dose-response, read-out: enzymatic IC50 of the closest off-target) is listed as 81 nM and the “closest off-target less potent compared to SYK” value [4] is listed as 81 fold.
